# Key:
# Experiment in all cases: relative viability (nuclei count vs DMSO), 5 days (fraction); higher = more cells survive
# [1] = compound: CC1=CC(=CC=C1)NC2=NC(=CS2)C3=CC=NC=C3
# Procedure, shortened: (§1)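 A plate was accepted only when its control CV was below 25% and the cells had doubled at least once. Viability is defined from nuclear counts as treated wells divided by vehicle wells, with the median taken across plates. That median covers lung cancer cell lines grown in 1536-well plates, dosed by pinning at five √10-spaced library-drug concentrations, and counted in MetaXpress from 4× Hoechst images after 5 days.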
# [2] = compound: Cc1ccc(NC(=O)c2ccc(CN3CCN(C)CC3)cc2)cc1Nc1nc(-c2cccnc2)cs1 [Masitinib]
# Procedure, shortened: as §1
# [3] = compound: Cc1ccc(NC(=O)c2ccc(CN3CCN(C)CC3)cc2)cc1Nc1nc(-c2cccnc2)cs1 [Masitinib] + Cc1cc(Nc2cc(N3CCN(C)CC3)nc(Sc3ccc(NC(=O)C4CC4)cc3)n2)n[nH]1 [Tozasertib] (partner 0.1 µM)
# Procedure, shortened: (§2)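 Medians of duplicate plates are given as relative viability. That measure is the nuclei count in treated wells divided by the count in vehicle wells. Counts were taken on 4× images of lung cancer cell lines in 1536-well plates, 5 days after pin-tool dosing the day after seeding with one drug alone or a fixed anchor-drug dose plus five library-drug doses (not always all listed) in √10 steps.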
# [4] = compound: CC1=CC(=CC=C1)NC2=NC(=CS2)C3=CC=NC=C3 + CC1(C)CCC(c2ccc(Cl)cc2)=C(CN2CCN(c3ccc(C(=O)NS(=O)(=O)c4ccc(N[C@H](CCN5CCOCC5)CSc5ccccc5)c(S(=O)(=O)C(F)(F)F)c4)cc3)CC2)C1 [Navitoclax] (partner 0.5 µM)
# Procedure, shortened: as §2
cell line,measurement,setting,value
UMC-11,relative viability,[1]; 0.08 µM,0.872
same,relative viability,[1]; 0.253 µM,0.927
same,relative viability,[1]; 0.8 µM,0.927
same,relative viability,[1]; 2.53 µM,0.93
same,relative viability,[1]; 8 µM,1.03
same,relative viability,[2]; 0.01 µM,0.926
same,relative viability,[2]; 0.03162 µM,0.969
same,relative viability,[2]; 0.1 µM,1.09
same,relative viability,[2]; 0.3162 µM,0.961
same,relative viability,[2]; 1 µM,1.06
same,relative viability,[3]; first compound 0.01 µM,0.204
same,relative viability,[3]; first compound 0.03162 µM,0.207
same,relative viability,[3]; first compound 0.1 µM,0.198
same,relative viability,[3]; first compound 0.3162 µM,0.211
same,relative viability,[3]; first compound 1 µM,0.195
same,relative viability,[4]; first compound 0.08 µM,0.281
same,relative viability,[4]; first compound 0.253 µM,0.266
same,relative viability,[4]; first compound 0.8 µM,0.295
same,relative viability,[4]; first compound 2.53 µM,0.348
same,relative viability,[4]; first compound 8 µM,0.478

# — the supplement of paper PMC10307832
